The values below come from patent US12553889B2, “Small molecules targeting the intrinsically disordered structural ensemble of α-synuclein protect against diverse α-synuclein mediated dysfunctions” (The Regents of the University of California, priority 2019, dated 2026).

One assay has as its system A53T αSyn. The experiment in a line: Dopaminergic neuron viability assay, A53T αSyn adenovirus transduced primary midbrain cultures. The class given is cell-based, rat. The procedure:
Primary midbrain cultures were prepared and dopaminergic neuronal viability in the presence and absence of αSyn was assessed as previously described and repeated herein. Primary midbrain cultures were prepared from embryonic day 17 embryos of Sprague-Dawley rats using methods reviewed and approved by the Purdue Animal Care and Use Committee as described previously. After dissection, the cells were plated into a poly-L-lysine-treated 48-well plate at a density of 163,500 cells per well. Four days later, the cells were treated with cytosine arabinofuranoside (AraC) (20 μM) for 48 hours to inhibit the growth of glial cells. The cultures were used for measurements of dopaminergic neuron viability at 7 days in vitro. […] In order to determine the viability of dopaminergic neurons, MAP2- and TH-positive neurons were counted in 10 to 15 randomly chosen observation fields in a blinded manner using a Nikon TE2000-U inverted fluorescence microscope (Nikon Instruments, Melville NY) with a 20× objective. In the control conditions, and in conditions where the compound was neuroprotective, typically 500 to 1,300 MAP2-positive neurons were counted, a range that corresponds to 20 to 50 TH-positive neurons. The data were expressed as the ratio of the TH-positive neurons to the MAP2-positive neurons. […]

In another assay the test system is αSyn. The experiment in a line: Western analyses of αSyn levels in H4 cells. It counts as cell-based, human. The settings on record: H4 cells transiently transfected with split Gaussia luciferase tagged αSyn, 150 μM. As for the experimental part:
All materials were purchased from Invitrogen (Carlsbad, CA) unless stated otherwise. Cell from a 6 well dish were washed twice with PBS and lysed with 250 μl of RIPA Lysis buffer with protease and phosphatase inhibitors (Sigma, St. Louis, MO). Lysates were incubated on a shaker for 15 minutes at 4° C. and spun down for 15 min. at 10,000 g. Total protein concentrations were determined by BCA assay (Thermo Fisher, Waltham, MA). 1 ml of media was collected and incubated with protease and phosphatase inhibitors and 50 μl of Ni-agarose beads to collect the His-tagged αSyn (Qiagen, Hilden, Germany) for 2 hrs at […]. Beads were centrifuged and washed in PBS. Cell samples and pelleted beads from the media were placed into Bolt LDS (lithium dodecyl sulfate) sample buffer with 20% β-mercaptoethanol and boiled for 15 min. 5-15 μg of sample (cells) and an equivalent fraction of media were electrophoresed on Bolt 4-12% Bis-Tris Plus gels with Bolt MES SDS running buffer and the Precision Plus Protein Dual Color Standards (Biorad, Hercules, CA) molecular weight markers. After electrophoresis, the separated proteins were transferred onto a 0.2 μm pore size PVDF membrane for 90 minutes at 400 mA and 4° C. in Bolt Transfer Buffer using BioRad midi transfer chambers. […] Membranes were scanned and quantitated using the Odyssey CLx Imaging System (LI-COR, Lincoln, NE). […]

Assay [1] has as its system H4 SL1 & SL2 neuroglioma cell line. The experiment in a line: Cell model of αSyn aggregate formation (phospho-S129 αSyn staining, ARRAYSCAN). It counts as cell-based. The settings on record: 100 μM and 150 μM, 45 hours. As for the experimental part:
Next, 583854 was tested for impact on αSyn aggregation in a cell model of αSyn aggregate formation. Split Gaussian luciferase tagged αSyn overexpression was induced in the H4 SL1 & SL2 neuroglioma cell line by tetracycline addition (Moussaud, S., et al. (2015)). αSyn aggregates were visualized by staining fixed (4% PFA) cells with the S129 phosphorylated αSyn specific antibody 11A5 at 1 μg/ml (Anderson, J. P. et al. (2006)) using a green fluorescently labelled secondary antibody. Nuclei were stained with a blue Hoescht nuclear dye. Uninduced cells contained no phospho-αSyn staining and induced cells contain abundant phospho-αSyn aggregates. The cells were imaged for nuclei (blue, diffuse circular staining as in the Uninduced sample)) and phospho-αSyn (green punctate staining) on an ARRAYSCAN automated imaging platform (FIG. 23A), αSyn aggregates were quantitated using the ARRAYSCAN spot-detector algorithm. Cells were induced for αSyn by tetracycline addition and 583854 was added 3 to 4 hours later. At 48 hours after tetracycline addition the cells are washed in PBS and […] with 4% PFA.

“Also recorded” adds a separate entry of the source.

For `CNC(=O)c1cc(O)ccc1N` [Compound 576755, 2-amino-5-hydroxy-N-methylbenzamide], the “effect on A53T αSyn neurotoxicity (TH-positive/MAP2-positive neurons)” value in the assay with A53T αSyn (10 μM) is on record as “a trend towards a similar inhibitory effect”; in the assay on A53T αSyn (60 μM) it was “suppressed A53T αSyn neurotoxicity; also recorded: alleviates loss of dopaminergic neurons”. Moreover, in the assay with αSyn, the “impact on cellular αSyn protein levels” value is “no impact on αSyn levels”.
For the compound `CNC(=O)c1cc(O)ccc1O` [Compound 583854, 2,5-dihydroxy-N-methylbenzamide], the “impact on αSyn aggregates (phospho-αSyn)” value in assay [1] is listed as “reduced αSyn aggregates”.
